Test results as given in US7232842B2, “Kinase inhibitors and associated pharmaceutical compositions and methods of use” (Board of Trustees of the LeLand Stanford Junior University, priority 2003, dated 2007).

Legend:
[1] = tested on: Protein kinase C, as a mixture of isozymes; experiment: PKC activity assay, 32P transfer from [γ-32P]ATP to histone III-S; type: biochemical, rat; conditions: for inhibition at 10 μM: 10 μM inhibitor; for IC50: histone III-S substrate, 15 min, three trials per concentration
Source text: In practicing various aspects of the present invention, compounds in accordance with the invention can be tested for a biological activity of interest using any assay protocol that is predictive of activity in vivo. For example, a variety of convenient assay protocols are available that are generally predictive of PKC inhibitory activity in vivo. In one approach, PKC inhibitory activity can be assessed using the PKC assay described in Example 9 (also described by Toullec et al. (1991) J. Biol. Chem. 266:15771). In that assay, the PKC was derived, as a mixture of isozymes, from rat brains, and activity was determined by incorporation of ^32P radiolabeled phosphate, derived from [γ-^32P]-ATP, onto a PKC substrate. Another assay for assessing PKC inhibitory activity is described in Example 10; see also U.S. Patent Application Publication No. 2002/0137789 A1 to Wender et al. In this assay, Ki values are determined for potential inhibitors based on competition with radiolabeled phorbol 12,13-dibutyrate for binding to a mixture of PKC isozymes.
Materials used: Phosphatidyl serine and 1,2 sn-dioleylglycerol were obtained from Serdary Research Laboratories. Protein kinase C, as a mixture of isozymes, was obtained in isolated and purified form from Prof. Daria Mochley-Rosen and Tamar Lion (Stanford University, Department of Molecular Pharmacology).
PKC activity was assayed by measuring ^32Pi transferred from [γ-^32P]ATP to histone III-S (Sigma). The reaction mixture (100 μL) included 20 mM Tris-HCl (pH 7.5) (30 μL), 10 mM CaCl2 in 20 mM Tris-HCl (10 μL), a sonicated suspension of 2.4 mg/mL phosphatidylserine and 80 μg/mL 1,2-diacylglycerol in 20 mM Tris-HCl (10 μL), a PKC preparation of 4.5 mg/mL total PKC with 5–9 U activity/mL relative to histone III-S (10 μL), a solution of 0.35 mg/mL histone III-S (Sigma) in 20 mM Tris-HCl (10 μL), and a solution of the inhibitor at various concentrations in 20 mM Tris-HCl containing <1% DMSO (10 μL). The reaction was started by the addition of a solution containing 27 μL of 3.75 mM ATP (non-radiolabeled), 100 μL 1.0 M MgCl2, and 1.3 μL of […] [γ-^32P]ATP, and 872 μL of 20 mM Tris-HCl (pH 7.5) (20 μL). After 15 min, the reaction was stopped by the addition of 30 μL of 200 mM EDTA and 200 mM ATP (non-radiolabeled). The reaction mixture was adsorbed onto phosphocellulose paper squares (Whatman P81), and allowed to dry for 5 min. The phosphocellulose paper squares were then washed with EtOH (3×1 min). The total protein phosphorylation was quantitated by scintillation counting. Counts per minute were averaged among three trials at each concentration.

five of the PKC isoforms = conditions: cited from earlier work
PKC = conditions: Tamaoki et al. (1986); cited from earlier work

Row | melting point | inhibition at 10 μM [1] | IC50 [1] | SMILES | IC50 (five of the PKC isoforms) | IC50 (PKC)
1 | 309 to 310 °C (dec.) | ^A36% inhibition at 10 μM | > 10 µM | CN1C(=O)c2c3c(c4[nH]c5ccccc5c4c2C1=O)CCC(=O)CC3 [Compound 10] | – | –
2 | – | – | 3.6 µM | O=C1CCc2c3c(c4c([nH]c5ccccc54)c2CC1)C(=O)NC3=O [Compound 11] | – | –
3 | – | – | 4.5 µM | O=C1NC(=O)c2c1c1c(c3[nH]c4ccccc4c23)CCC(O)CC1 (stereo not drawn) [Compound 12] | – | –
4 | – | – | – | CN[C@H]1CC2(C)OC(C)([C@H]1OC)n1c3ccccc3c3c4c(c5c6ccccc6n2c5c31)C(=O)NC4 (stereo partly drawn) [Staurosporin] | < 0.01 µM | 0.0027 µM
5 | – | ^B40% inhibition at 10 μM | > 10 µM | CN1C(=O)c2c3c(c4c(c2C1=O)c1ccccc1n4CCCNC(=O)OC(C)(C)C)CCC(O)CC3 (stereo not drawn) [Compound 14] | – | –
